# Measured values taken from patent publication US6737383B1, “Herbicidal oxadiazolidines” (priority 1999, dated 2004).
# What was measured:
# bedstraw = test: Test B pre/postemergence bedstraw; format: in vivo, Galium aparine; conditions: Postemergence
# Procedure, shortened: (§1)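 Response is a visual 0-to-10 score relative to untreated plants, where 0 means no effect and 10 means complete control, taken twelve to sixteen days after application. Treatments went onto soil at planting and onto foliage of 1- to 4-leaf plants, using a surfactant-containing non-phytotoxic solvent.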
# blackgrass = test: Test B pre/postemergence blackgrass; format: in vivo, Alopecurus myosuroides
# Procedure, shortened: as §1
# surinam grass = test: Test B pre/postemergence surinam grass; format: in vivo, Brachiaria decumbens
# Procedure, shortened: as §1
# cocklebur = test: Test B pre/postemergence cocklebur; format: in vivo, Xanthium strumarium
# Procedure, shortened: as §1
# corn = test: Test B pre/postemergence corn; format: in vivo, Zea mays
# Procedure, shortened: as §1
# crabgrass = test: Test B pre/postemergence crabgrass; format: in vivo, Digitaria sanguinalis
# Procedure, shortened: as §1
# giant foxtail = test: Test B pre/postemergence giant foxtail; format: in vivo, Setaria faberii
# Procedure, shortened: as §1
# pigweed = test: Test B pre/postemergence pigweed; format: in vivo, Amaranthus retroflexus
# Procedure, shortened: as §1
# soybean = test: Test B pre/postemergence soybean; format: in vivo, Glycine max
# Procedure, shortened: as §1
# sugar beet = test: Test B pre/postemergence sugar beet; format: in vivo, Beta vulgaris
# Procedure, shortened: as §1
# velvetleaf = test: Test B pre/postemergence velvetleaf; format: in vivo, Abutilon theophrasti
# Procedure, shortened: as §1
# wild oat = test: Test B pre/postemergence wild oat; format: in vivo, Avena fatua
# Procedure, shortened: as §1
# purple nutsedge = test: Test B pre/postemergence purple nutsedge; format: in vivo, Cyperus rotundus
# Procedure, shortened: as §1
# rice = test: Test B flood test rice; format: in vivo, Oryza sativa
# Procedure, shortened: (§2)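 Flood test on plants grown to the 2-leaf stage; treated plants kept in greenhouse twelve to sixteen days, then visually rated against controls on a 0 (no effect) to 10 (complete control) scale.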
# smallflower flatsedge = test: Test B flood test smallflower flatsedge; format: in vivo, Cyperus difformis
# Procedure, shortened: as §2
# bamyardgrass = test: Test B flood test barnyardgrass; format: in vivo, Echinochloa crus-galli
# Procedure, shortened: as §2
# [1] = Postemergence, Rate 62 g/ha, scale 0 to 10, 0 is no effect, 10 is complete control
# [2] = Postemergence, Rate 125 g/ha, scale of 0 to 10 where 0 is no effect and 10 is complete control
# [3] = Postemergence, Rate 250 g/ha, scale of 0 to 10, 0 is no effect, 10 is complete control
# [4] = Preemergence, Rate 62 g/ha, scale of 0 to 10 where 0 is no effect and 10 is complete control
# [5] = Preemergence, Rate 125 g/ha, scale of 0 to 10 where 0 is no effect and 10 is complete control
# [6] = Preemergence, Rate 250 g/ha, scale 0 to 10 (0 no effect, 10 complete control)
# [7] = Preemergence, Rate 500 g/ha, scale of 0 to 10 where 0 is no effect and 10 is complete control
# [8] = Rate 500 g/ha, Postemergence, scale 0 to 10, 0 is no effect, 10 is complete control
# [9] = Rate 62 g/ha, flood test species, Pre-emergence, visual evaluation after twelve to sixteen days
# [10] = Rate 125 g/ha, under heading Pre-emergence, flood test species, visual evaluation after twelve to sixteen days
# [11] = Rate 250 g/ha, Pre-emergence (flood test species), scale 0 to 10, 0 is no effect, 10 is complete control
# [12] = Rate 500 g/ha, Pre-emergence section of Table B, 0 to 10 scale (0 no effect, 10 complete control)
smiles,measurement,setting,value
CC(C)N(C(=O)n1oc(=O)n(CC2CCCCO2)c1=O)c1ccccc1 (stereo not shown) [Compound 659],"Plant response rating, Bedstraw","bedstraw; Rate 62 g/ha, scale 0 to 10, 0 is no effect, 10 is complete control",0
same,Bedstraw plant response rating,"bedstraw; Rate 125 g/ha, scale of 0 to 10 where 0 is no effect and 10 is complete control",0
same,"Plant response rating, Blackgrass",blackgrass; [1],1
same,Blackgrass plant response rating,blackgrass; [2],6
same,Blackgrass plant response rating,blackgrass; [3],7
same,Blackgrass plant response rating,blackgrass; [4],3
same,Blackgrass plant response rating,blackgrass; [5],6
same,"Plant response rating, Blackgrass",blackgrass; [6],7
same,"Plant response rating, Blackgrass",blackgrass; [7],9
same,Blackgrass plant response rating,blackgrass; [8],7
same,"Plant response rating, B. signalgrass",surinam grass; [1],0
same,"Plant response rating, B. signalgrass",surinam grass; [2],5
same,B. signalgrass plant response rating,surinam grass; [3],5
same,B. signalgrass plant response rating,surinam grass; [4],2
same,B. signalgrass plant response rating,surinam grass; [5],4
same,"Plant response rating, B. signalgrass",surinam grass; [6],4
same,"Plant response rating, B. signalgrass",surinam grass; [7],8
same,B. signalgrass plant response rating,surinam grass; [8],8
same,"Plant response rating, Cocklebur",cocklebur; [1],0
same,Cocklebur plant response rating,cocklebur; [2],0
same,Cocklebur plant response rating,cocklebur; [3],0
same,Cocklebur plant response rating,cocklebur; [4],0
same,Cocklebur plant response rating,cocklebur; [5],0
same,"Plant response rating, Cocklebur",cocklebur; [6],0
same,"Plant response rating, Cocklebur",cocklebur; [7],0
same,Cocklebur plant response rating,cocklebur; [8],2
same,"Plant response rating, Corn",corn; [1],0
same,Corn plant response rating,corn; [2],0
same,Corn plant response rating,corn; [3],4
same,Corn plant response rating,corn; [4],0
same,Corn plant response rating,corn; [5],0
same,"Plant response rating, Corn",corn; [6],7
same,"Plant response rating, Corn",corn; [7],9
same,Corn plant response rating,corn; [8],6
same,"Plant response rating, Crabgrass",crabgrass; [1],1
same,Crabgrass plant response rating,crabgrass; [2],6
same,Crabgrass plant response rating,crabgrass; [3],6
same,Crabgrass plant response rating,crabgrass; [4],8
same,Crabgrass plant response rating,crabgrass; [5],8
same,"Plant response rating, Crabgrass",crabgrass; [7],10
same,Crabgrass plant response rating,crabgrass; [8],8
same,"Plant response rating, Giant foxtail",giant foxtail; [1],5
same,Giant foxtail plant response rating,giant foxtail; [2],7
same,Giant foxtail plant response rating,giant foxtail; [3],8
same,Giant foxtail plant response rating,giant foxtail; [4],9
same,Giant foxtail plant response rating,giant foxtail; [5],9
same,"Plant response rating, Giant foxtail",giant foxtail; [6],9
same,"Plant response rating, Giant foxtail",giant foxtail; [7],10
same,Giant foxtail plant response rating,giant foxtail; [8],8
same,"Plant response rating, Redroot pigweed",pigweed; [1],0
same,Redroot pigweed plant response rating,pigweed; [2],0
same,Redroot pigweed plant response rating,pigweed; [4],6
same,Redroot pigweed plant response rating,pigweed; [5],6
same,"Plant response rating, Redroot pigweed",pigweed; [6],9
same,"Plant response rating, Redroot pigweed",pigweed; [7],10
same,Redroot pigweed plant response rating,pigweed; [8],7
same,"Plant response rating, Soybean",soybean; [1],2
same,Soybean plant response rating,soybean; [2],3
same,Soybean plant response rating,soybean; [4],0
same,Soybean plant response rating,soybean; [5],0
same,"Plant response rating, Soybean",soybean; [6],0
same,"Plant response rating, Soybean",soybean; [7],2
same,Soybean plant response rating,soybean; [8],7
same,"Plant response rating, Sugarbeets",sugar beet; [1],0
same,Sugarbeets plant response rating,sugar beet; [2],0
same,Sugarbeets plant response rating,sugar beet; [4],0
same,Sugarbeets plant response rating,sugar beet; [5],0
same,"Plant response rating, Sugarbeets",sugar beet; [6],0
same,"Plant response rating, Sugarbeets",sugar beet; [7],5
same,Sugarbeets plant response rating,sugar beet; [8],4
same,"Plant response rating, Velvetleaf",velvetleaf; [1],0
same,Velvetleaf plant response rating,velvetleaf; [2],3
same,Velvetleaf plant response rating,velvetleaf; [4],0
same,Velvetleaf plant response rating,velvetleaf; [5],0
same,"Plant response rating, Velvetleaf",velvetleaf; [6],6
same,"Plant response rating, Velvetleaf",velvetleaf; [7],7
same,Velvetleaf plant response rating,velvetleaf; [8],6
same,"Plant response rating, Wild oats",wild oat; [1],0
same,Wild oats plant response rating,wild oat; [2],0
same,Wild oats plant response rating,wild oat; [4],0
same,Wild oats plant response rating,wild oat; [5],0
same,"Plant response rating, Wild oats",wild oat; [6],3
same,"Plant response rating, Wild oats",wild oat; [7],9
same,Wild oats plant response rating,wild oat; [8],3
same,"Plant response rating, Nutsedge",purple nutsedge; [1],0
same,Nutsedge plant response rating,purple nutsedge; [2],0
same,Nutsedge plant response rating,purple nutsedge; [4],0
same,Nutsedge plant response rating,purple nutsedge; [5],0
same,"Plant response rating, Nutsedge",purple nutsedge; [6],0
same,"Plant response rating, Nutsedge",purple nutsedge; [7],0
same,Nutsedge plant response rating,purple nutsedge; [8],0
same,"Plant response rating, Rice (0 to 10 scale, 0 is no effect, 10 is complete control)",rice; [9],0
same,"Rice plant response rating (0 to 10 scale, 0 is no effect, 10 is complete control)",rice; [10],0
same,Rice plant response rating,rice; [11],0
same,Rice plant response rating,rice; [12],0
same,"Plant response rating, S. Flatsedge (0 to 10 scale, 0 is no effect, 10 is complete control)",smallflower flatsedge; [9],0
same,"S. Flatsedge plant response rating (0 to 10 scale, 0 is no effect, 10 is complete control)",smallflower flatsedge; [10],0
same,S. Flatsedge plant response rating,smallflower flatsedge; [11],0
same,S. Flatsedge plant response rating,smallflower flatsedge; [12],5
same,"Plant response rating, Barnyardgrass (0 to 10 scale, 0 is no effect, 10 is complete control)",bamyardgrass; [9],0
same,"Barnyardgrass plant response rating (0 to 10 scale, 0 is no effect, 10 is complete control)",bamyardgrass; [10],2
same,Barnyardgrass plant response rating,bamyardgrass; [11],2
same,Barnyardgrass plant response rating,bamyardgrass; [12],7
